Experimental data reported in article PMC8538057, “Direct Delivery of ANA-TA9, a Peptide Capable of Aβ Hydrolysis, to the Brain by Intranasal Administration” (Pharmaceutics, 2021).
Ends that are not written are not given here.

Tests used:
[1] = In vitro stability in the cerebrospinal fluid; assay type: in vitro ADME; settings: cerebrospinal fluid (CSF), rat CSF, 37 °C, LC/MS without treatment, three experiments
Experimental: After the anesthetization of rats with an i.p. application of the anesthetic mixture, the cerebrospinal fluid (CSF) was collected by cisternal puncture, followed by the collection of whole blood from the polyethylene cannula inserted into the right femoral artery. The blood was heparinized and centrifuged at 15,000 rpm for 10 min at 4 °C, and the supernatant was collected as plasma.
ANA-TA9 was dissolved in PBS at a concentration of 0.1 mg/mL or 1 mg/mL. Immediately before the incubation, 5 μL or 10 μL of the ANA-TA9 solution was added to 45 μL or 90 μL of CSF or plasma, respectively. Similarly, 10 μL of the ANA-TA9 solution was added to 90 μL of whole blood. At predetermined times after the incubation at 37 °C, the samples were cooled by placing them on ice. Methanol (1 mL) was added to the plasma and whole blood for deproteinization. The mixtures were then vortexed and centrifuged at 15,000 rpm for 5 min at 4 °C. […] The concentrations of ANA-TA9 in the plasma and whole blood were measured by LC/MS. The ANA-TA9 concentrations were measured in the CSF samples by LC/MS without any treatments.
Chromatographic separation was performed using a C18 analytical column (TSKgel ODS 100V, 3 μm, 2.0 mm × 100 mm; TOSOH, Tokyo, Japan). […] ANA-TA9 eluting from the column was detected with mass spectrometry under the positive mode. […] The calibration curves of ANA-TA9 in the plasma and the brain were determined.

[2] = Degradation of ANA-TA9 in the rat nasal cavity (nasal perfusion); assay type: in vivo; settings: 15 mL PBS at 10 μg/mL, 120 min, LC/MS, mean of three experiments
Experimental: Polyethylene tubing was inserted into the rat esophagus and trachea according to the method of Hirai et al.. Briefly, under anesthesia with the anesthetic mixture described in Section 2.3.2, the trachea was cannulated with polyethylene tubing, and another tube was inserted from the esophagus to the posterior part of the nasal cavity. The nasopalatine was closed with surgical adhesive. A solution of ANA-TA9 (15 mL PBS at 10 μg/mL) was perfused from the esophagus through the nasal cavity using a peristaltic pump (SJ-1211-H; ATTO, Tokyo, Japan). The perfusing solution of ANA-TA9 was sampled at predetermined times. The ANA-TA9 concentration in the perfusate was measured by liquid chromatography-mass spectrometry (LC/MS) after the same pretreatment as that of the plasma described in Section 2.4.2.

Aβ42 = settings: also three Aβ fragment peptides, particularly Aβ11–29; cited from earlier work
Description: Recently, we reported the proteolytic activity of the shorter synthetic peptides JAL-TA9 (YKGSGFRMI) and ANA-TA9 (SKGQAYRMI), derived from the Box A region of the Tob1 and ANA/BTG3 proteins. These peptides cleave Aβ42 and three Aβ fragment peptides, particularly Aβ11–29 originating from the central region, which is considered the core region of Aβ42 aggregation/oligomerization. We gave these peptides the general name Catalytide. Catalytides such as JAL-TA9 and ANA-TA9 are attractive candidate peptide drugs for a novel strategy for preventing and treating AD.

remaining at 0.5 h ([1]; 5 μL ANA-TA9 PBS solution (0.1 mg/mL or 1 mg/mL) added to 45 μL CSF, 30 min, read-out: CSF concentration remaining at 30 min after the start of the incubation): 74%
remaining at 2 h ([1]; 5 μL ANA-TA9 PBS solution added to 45 μL CSF, 2 h, read-out: CSF concentration remaining at 2 h after the start of the incubation): 46%
concentration in the nasal perfusate, % of the initial concentration [2]: 54%
Sequence: SKGQAYRMI [ANA-TA9]
cleavage of Aβ42 (proteolytic activity) (Aβ42): cleave Aβ42
